Experimental data reported in patent publication US12404285B2, “KRAS G12D proteolysis targeting chimeras” (PAQ Therapeutics Inc., priority 2022, dated 2025).

Target: T1, KRAS (G12D)-HiBit in AsPc-1-KRAS (G12D)-HiBit-KI cell (Homo sapiens, UniProt P01116, G12D)
T1 construct: host or cells: AsPc-1-KRAS (G12D)-HiBit-KI cells (knock-in line)
Assay: G12D HiBit assay
Format: cell-based
Settings: 24 hours compound treatment, absolute DC50, read-out: Average PHA DC50
How it was run: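 AsPc-1 cells with HiBiT knocked into KRAS G12D, seeded at 5×10^3/well and held overnight, then treated 24 h with 10-point 3-fold dilutions (300 nM to 0.015 nM). Lytic Nano-Glo HiBiT luminescence expressed as % of 0.1% DMSO control; absolute DC50 from curve fit.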

T1 sequence (P01116 1-188 isoform P01116-2 G12D): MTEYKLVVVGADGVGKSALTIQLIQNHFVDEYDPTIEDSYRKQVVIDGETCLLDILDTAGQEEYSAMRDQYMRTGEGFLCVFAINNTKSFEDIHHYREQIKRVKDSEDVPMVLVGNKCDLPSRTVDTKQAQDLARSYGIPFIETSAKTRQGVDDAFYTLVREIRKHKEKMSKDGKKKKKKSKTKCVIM

SMILES | DC50
C#Cc1c(F)ccc2cccc(-c3ncc4c(N5CC6CCC(C5)N6)nc(OC[C@@]56CCCN5[C@H](COC(=O)NCCCN(C)C5CCN(c7cccc8c7n(C)c(=O)n8C7CCC(=O)NC7=O)CC5)CC6)nc4c3F)c12 (stereo partly drawn) [Compound 109, [(3S,8S)-8-[[4-(3,8-Diazabicyclo[3.2.1]octan-3-yl)-7-(8-ethynyl-7-fluoro-1-naphthyl)-8-fluoro-pyrido[4,3-d]pyrimidin-2-yl]oxymethyl]-1,2,3,5,6,7-hexahydropyrrolizin-3-yl]methylN-[3-[[1-[1-(2,6-dioxo-3-piperidyl)-3-methyl-2-oxo-benzimidazol-4-yl]-4-piperidyl]-methyl-amino]propyl]carbamate] | ≥ 300 nM
C#Cc1c(F)ccc2cccc(-c3ncc4c(N5CC6CCC(C5)N6)nc(OC[C@@]56CCCN5[C@H](COC(=O)NCCCC(=O)N5CCN(c7cccc8c7n(C)c(=O)n8C7CCC(=O)NC7=O)CC5)CC6)nc4c3F)c12 (stereo partly drawn) [Compound 110, ((3S,7aS)-7a-(((4-((1R,5S)-3,8-Diazabicyclo[3.2.1]octan-3-yl)-7-(8-ethynyl-7-fluoronaphthalen-1-yl)-8-fluoropyrido[4,3-d]pyrimidin-2-yl)oxy)methyl)hexahydro-1H-pyrrolizin-3-yl)methyl(4-(4-(1-(2,6-dioxopiperidin-3-yl)-3-methyl-2-oxo-2,3-dihydro-1H-benzo[d]imidazol-4-yl)piperazin-1-yl)-4-oxobutyl)carbamate] | ≥ 300 nM
C#Cc1c(F)ccc2cccc(-c3ncc4c(N5CC6CCC(C5)N6)nc(OC[C@@]56CCCN5[C@H](COC(=O)N5CCO[C@@H](CN7CCN(c8cccc9c8n(C)c(=O)n9C8CCC(=O)NC8=O)CC7)C5)CC6)nc4c3F)c12 (stereo partly drawn) [Compound 111, [(3S,8S)-8-[[4-(3,8-Diazabicyclo[3.2.1]octan-3-yl)-7-(8-ethynyl-7-fluoro-1-naphthyl)-8-fluoro-pyrido[4,3-d]pyrimidin-2-yl]oxymethyl]-1,2,3,5,6,7-hexahydropyrrolizin-3-yl]methyl (2S)-2-[[4-[1-(2,6-dioxo-3-piperidyl)-3-methyl-2-oxo-benzimidazol-4-yl]piperazin-1-yl]methyl]morpholine-4-carboxylate-2,6-dione] | < 100 nM
C#Cc1c(F)ccc2cccc(-c3ncc4c(N5CC6CCC(C5)N6)nc(OC[C@@]56CCCN5[C@H](COC(=O)N5CCC(CN7CCN(c8cccc9c8n(C)c(=O)n9C8CCC(=O)NC8=O)CC7)CC5)CC6)nc4c3F)c12 (stereo partly drawn) [Compound 112, [(3S,8S)-8-[[4-(3,8-Diazabicyclo[3.2.1]octan-3-yl)-7-(8-ethynyl-7-fluoro-1-naphthyl)-8-fluoro-pyrido[4,3-d]pyrimidin-2-yl]oxymethyl]-1,2,3,5,6,7-hexahydropyrrolizin-3-yl]methyl 4-[[4-[1-(2,6-dioxo-3-piperidyl)-3-methyl-2-oxo-benzimidazol-4-yl]piperazin-1-yl]methyl]piperidine-1-carboxylate] | < 100 nM
C#Cc1c(F)ccc2cccc(-c3ncc4c(N5CC6CCC(C5)N6)nc(OC[C@@]56CCCN5[C@H](COC(=O)N5CC(CN7CCN(c8cccc9c8n(C)c(=O)n9C8CCC(=O)NC8=O)CC7)C5)CC6)nc4c3F)c12 (stereo partly drawn) [Compound 113, [(3S,8S)-8-[[4-(3,8-Diazabicyclo[3.2.1]octan-3-yl)-7-(8-ethynyl-7-fluoro-1-naphthyl)-8-fluoro-pyrido[4,3-d]pyrimidin-2-yl]oxymethyl]-1,2,3,5,6,7-hexahydropyrrolizin-3-yl]methyl 3-[[4-[1-(2,6-dioxo-3-piperidyl)-3-methyl-2-oxo-benzimidazol-4-yl]piperazin-1-yl]methyl]azetidine-1-carboxylate] | 100 to 300 nM
C#Cc1c(F)ccc2cccc(-c3ncc4c(N5CC6CCC(C5)N6)nc(OC[C@@]56CCCN5[C@H](COC(=O)N5CCC(OCCCC#Cc7ccc8c(c7)n(C)c(=O)n8C7CCC(=O)NC7=O)CC5)CC6)nc4c3F)c12 (stereo partly drawn) [Compound 114, [(3S,8S)-8-[[4-(3,8-Diazabicyclo[3.2.1]octan-3-yl)-7-(8-ethynyl-7-fluoro-1-naphthyl)-8-fluoro-pyrido[4,3-d]pyrimidin-2-yl]oxymethyl]-1,2,3,5,6,7-hexahydropyrrolizin-3-yl]methyl 4-[5-[1-(2,6-dioxo-3-piperidyl)-3-methyl-2-oxo-benzimidazol-5-yl]pent-4-ynoxy]piperidine-1-carboxylate] | < 100 nM
C#Cc1c(F)ccc2cccc(-c3ncc4c(N5CC6CCC(C5)N6)nc(OC[C@@]56CCCN5[C@H](COC(=O)N5CCC(OCc7ccc8c(c7)n(C)c(=O)n8C7CCC(=O)NC7=O)CC5)CC6)nc4c3F)c12 (stereo partly drawn) [Compound 116, [(3S,8S)-8-[[4-(3,8-Diazabicyclo[3.2.1]octan-3-yl)-7-(8-ethynyl-7-fluoro-1-naphthyl)-8-fluoro-pyrido[4,3-d]pyrimidin-2-yl]oxymethyl]-1,2,3,5,6,7-hexahydropyrrolizin-3-yl]methyl4-[[1-(2,6-dioxo-3-piperidyl)-3-methyl-2-oxo-benzimidazol-5-yl]methoxy]piperidine-1-carboxylate] | ≥ 300 nM
C#Cc1c(F)ccc2cccc(-c3ncc4c(N5CC6CCC(C5)N6)nc(OC[C@@]56CCCN5[C@H](COC(=O)N5CCC(OCCCCc7cccc8c7n(C)c(=O)n8C7CCC(=O)NC7=O)CC5)CC6)nc4c3F)c12 (stereo partly drawn) [Compound 117, [(3S,8S)-8-[[4-(3,8-Diazabicyclo[3.2.1]octan-3-yl)-7-(8-ethynyl-7-fluoro-1-naphthyl)-8-fluoro-pyrido[4,3-d]pyrimidin-2-yl]oxymethyl]-1,2,3,5,6,7-hexahydropyrrolizin-3-yl]methyl4-[4-[1-(2,6-dioxo-3-piperidyl)-3-methyl-2-oxo-benzimidazol-4-yl]butoxy]piperidine-1-carboxylate] | < 100 nM
C#Cc1c(F)ccc2cccc(-c3ncc4c(N5CC6CCC(C5)N6)nc(OC[C@@]56CCCN5[C@H](COC(=O)N5CCC(OCCCCCc7ccc8c(c7)n(C)c(=O)n8C7CCC(=O)NC7=O)CC5)CC6)nc4c3F)c12 (stereo partly drawn) [Compound 120, [(3S,8S)-8-[[4-(3,8-Diazabicyclo[3.2.1]octan-3-yl)-7-(8-ethynyl-7-fluoro-1-naphthyl)-8-fluoro-pyrido[4,3-d]pyrimidin-2-yl]oxymethyl]-1,2,3,5,6,7-hexahydropyrrolizin-3-yl]methyl 4-[5-[1-(2,6-dioxo-3-piperidyl)-3-methyl-2-oxo-benzimidazol-5-yl]pentoxy]piperidine-1-carboxylate] | < 100 nM
C#Cc1c(F)ccc2cccc(-c3ncc4c(N5CC6CCC(C5)N6)nc(OC[C@@]56CCCN5[C@H](COC(=O)N5CC7(CCN(c8cccc9c8n(C)c(=O)n9C8CCC(=O)NC8=O)CC7)C5)CC6)nc4c3F)c12 (stereo partly drawn) [Compound 121, [(3S,8S)-8-[[4-(3,8-Diazabicyclo[3.2.1]octan-3-yl)-7-(8-ethynyl-7-fluoro-1-naphthyl)-8-fluoro-pyrido[4,3-d]pyrimidin-2-yl]oxymethyl]-1,2,3,5,6,7-hexahydropyrrolizin-3-yl]methyl 7-[1-(2,6-dioxo-3-piperidyl)-3-methyl-2-oxo-benzimidazol-4-yl]-2,7-diazaspiro[3.5]nonane-2-carboxylate] | ≥ 300 nM
C#Cc1c(F)ccc2cccc(-c3ncc4c(N5CC6CCC(C5)N6)nc(OC[C@@]56CCCN5[C@H](COC(=O)N5CCC(OCCCCCc7cccc8c7n(C)c(=O)n8C7CCC(=O)NC7=O)CC5)CC6)nc4c3F)c12 (stereo partly drawn) [Compound 122, [(3S,8S)-8-[[4-(3,8-diazabicyclo[3.2.1]octan-3-yl)-7-(8-ethynyl-7-fluoro-1-naphthyl)-8-fluoro-pyrido[4,3-d]pyrimidin-2-yl]oxymethyl]-1,2,3,5,6,7-hexahydropyrrolizin-3-yl]methyl4-[5-[1-(2,6-dioxo-3-piperidyl)-3-methyl-2-oxo-benzimidazol-4-yl]pentoxy]piperidine-1-carboxylate] | < 100 nM
C#Cc1c(F)ccc2cccc(-c3ncc4c(N5CC6CCC(C5)N6)nc(OC[C@@]56CCCN5[C@H](COC(=O)NCCOCCN5CCN(c7cccc8c7n(C)c(=O)n8C7CCC(=O)NC7=O)CC5)CC6)nc4c3F)c12 (stereo partly drawn) [Compound 123, [(3S,8S)-8-[[4-(3,8-diazabicyclo[3.2.1]octan-3-yl)-7-(8-ethynyl-7-fluoro-1-naphthyl)-8-fluoro-pyrido[4,3-d]pyrimidin-2-yl]oxymethyl]-1,2,3,5,6,7-hexahydropyrrolizin-3-yl]methyl N-[2-[2-[4-[1-(2,6-dioxo-3-piperidyl)-3-methyl-2-oxo-benzimidazol-4-yl]piperazin-1-yl]ethoxy]ethyl]carbamate] | ≥ 300 nM
C#Cc1c(F)ccc2cccc(-c3ncc4c(N5CC6CCC(C5)N6)nc(OC[C@@]56CCCN5[C@H](COC(=O)N5CCC7(CC5)CC(CCc5cccc8c5n(C)c(=O)n8C5CCC(=O)NC5=O)C7)CC6)nc4c3F)c12 (stereo partly drawn) [Compound 124, [(3S,8S)-8-[[4-(3,8-Diazabicyclo[3.2.1]octan-3-yl)-7-(8-ethynyl-7-fluoro-1-naphthyl)-8-fluoro-pyrido[4,3-d]pyrimidin-2-yl]oxymethyl]-1,2,3,5,6,7-hexahydropyrrolizin-3-yl]methyl 2-[2-[1-(2,6-dioxo-3-piperidyl)-3-methyl-2-oxo-benzimidazol-4-yl]ethyl]-7-azaspiro[3.5]nonane-7-carboxylate] | < 100 nM
C#Cc1c(F)ccc2cccc(-c3ncc4c(N5CC6CCC(C5)N6)nc(OC[C@@]56CCCN5[C@H](COC(=O)NC[C@@H]5CN(CC#Cc7cccc8c7n(C)c(=O)n8C7CCC(=O)NC7=O)CCO5)CC6)nc4c3F)c12 (stereo partly drawn) [Compound 125, [(3S,8S)-8-[[4-(3,8-Diazabicyclo[3.2.1]octan-3-yl)-7-(8-ethynyl-7-fluoro-1-naphthyl)-8-fluoro-pyrido[4,3-d]pyrimidin-2-yl]oxymethyl]-1,2,3,5,6,7-hexahydropyrrolizin-3-yl]methylN-[[(2R)-4-[3-[1-(2,6-dioxo-3-piperidyl)-3-methyl-2-oxo-benzimidazol-4-yl]prop-2-ynyl]morpholin-2-yl]methyl]carbamate] | ≥ 300 nM
